tested on: TFEB; assay: TFEB nuclear translocation assay, HeLa wt cells; assay type: cell-based; settings: Homo sapiens, HeLa, 2 h, 2 hrs compound treatment, Table 1 does not say HeLa wt or TRPML1 KO
Method in brief: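 Using 20× epifluorescence of fixed, anti-TFEB-stained HeLa wt cells treated 2 hrs with compound, nuclear versus perinuclear ring intensity was quantified over four fields per well, yielding AC50 values.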

**Q.** Cc1ccc(N2CCOCC2)c(NS(=O)(=O)c2ccc(S(=O)(=O)N(C)C)cc2)c1 [Compound A-757, N1,N1-dimethyl-N4-[5-methyl-2-(morpholin-4-yl)phenyl]benzene-1,4-disulfonamide] was tested. Which AC50 did it give?
**A.** ≤ 2000 nM

**Q.** C[C@@H]1CN(CC2CCN(c3c(F)cccc3NS(=O)(=O)c3ccc(S(=O)(=O)C(F)F)cc3)CC2)C[C@H](C)O1 [Compound A-758, 4-difluoromethanesulfonyl-N-[2-(4-{[(2R,6S)-2,6-dimethylmorpholin-4-yl]methyl}piperidin-1-yl)-3-fluorophenyl]benzene-1-sulfonamide] was tested. Which AC50 did it give?
**A.** ≤ 2000 nM

**Q.** How did the AC50 turn out when C[C@@H]1CN(CC2CCN(c3c(F)cccc3NS(=O)(=O)c3ccc4c(c3)CCC4)CC2)C[C@H](C)O1 [Compound A-759, N-[2-(4-{[(2R,6S)-2,6-dimethylmorpholin-4-yl]methyl}piperidin-1-yl)-3-fluorophenyl]-2,3-dihydro-1H-indene-5-sulfonamide] was run?
**A.** ≤ 2000 nM

**Q.** Which AC50 does the source give for O=S(=O)(Nc1ccccc1N1CCOCC1)c1ccc2c(c1)CCC2 [Compound A-760, N-[2-(morpholin-4-yl)phenyl]-2,3-dihydro-1H-indene-5-sulfonamide] here?
**A.** 2010 to 8000 nM

**Q.** For CN(C)S(=O)(=O)c1ccc(S(=O)(=O)Nc2ccccc2N2CCC(C(=O)N3CCOCC3)CC2)cc1 [Compound A-761, N1,N1-dimethyl-N4-{2-[4-(morpholine-4-carbonyl)piperidin-1-yl]phenyl}benzene-1,4-disulfonamide], which AC50 is on record?
**A.** ≥ 10000 nM

**Q.** How did the AC50 turn out when CN(C)S(=O)(=O)c1ccc(S(=O)(=O)Nc2cccc(F)c2N2CCC(CN3CC4CCC(C3)O4)CC2)cc1 [Compound A-762, N4-{3-fluoro-2-[4-({8-oxa-3-azabicyclo[3.2.1]octan-3-yl}methyl)piperidin-1-yl]phenyl}-N1,N1-dimethylbenzene-1,4-disulfonamide] was run?
**A.** ≤ 2000 nM

**Q.** With CN1CC2(CCN(c3c(F)cccc3NS(=O)(=O)c3ccc(S(=O)(=O)N(C)C)cc3)CC2)OC1=O [Compound A-764, N4-(3-fluoro-2-{3-methyl-2-oxo-1-oxa-3,8-diazaspiro[4.5]decan-8-yl}phenyl)-N1,N1-dimethylbenzene-1,4-disulfonamide] as the compound, how does the AC50 read?
**A.** 2010 to 8000 nM

**Q.** C[C@@H]1CN(CC2CCN(c3c(F)cccc3NS(=O)(=O)c3ccc(S(=O)(=O)N4CCC4)cc3)CC2)C[C@H](C)O1 [Compound A-765, 4-(azetidine-1-sulfonyl)-N-[2-(4-{[(2R,6S)-2,6-dimethylmorpholin-4-yl]methyl}piperidin-1-yl)-3-fluorophenyl]benzene-1-sulfonamide] was tested. Which AC50 did it give?
**A.** ≤ 2000 nM

**Q.** Which AC50 does the source give for C[C@@H]1CN(CC2CCN(c3c(F)cccc3NS(=O)(=O)c3ccc(C(F)F)cc3)CC2)C[C@H](C)O1 [Compound A-766, 4-(difluoromethyl)-N-[2-(4-{[(2R,6S)-2,6-dimethylmorpholin-4-yl]methyl}piperidin-1-yl)-3-fluorophenyl]benzene-1-sulfonamide] here?
**A.** ≤ 2000 nM

**Q.** Which AC50 does the source give for C[C@@H]1CN(CC2CCN(c3c(F)cccc3NS(=O)(=O)C3(c4ccccc4)CC3)CC2)C[C@H](C)O1 [Compound A-767, N-[2-(4-{[(2R,6S)-2,6-dimethylmorpholin-4-yl]methyl}piperidin-1-yl)-3-fluorophenyl]-1-phenylcyclopropane-1-sulfonamide] here?
**A.** ≤ 2000 nM

**Q.** Cc1nc(C2CC2)sc1S(=O)(=O)Nc1ccccc1N1CCC(CN2C[C@@H](C)O[C@@H](C)C2)CC1 [Compound A-768, 2-cyclopropyl-N-[2-(4-{[(2R,6S)-2,6-dimethylmorpholin-4-yl]methyl}piperidin-1-yl)phenyl]-4-methyl-1,3-thiazole-5-sulfonamide] was tested. Which AC50 did it give?
**A.** ≤ 2000 nM

**Q.** For C[C@@H]1CN(CC2CCN(c3c(F)cccc3NS(=O)(=O)c3ccc(S(=N)(=O)N(C)C)cc3)CC2)C[C@H](C)O1 (stereo partly drawn) [Compound A-769, N-(2-(4-(((2S,6R)-2,6-dimethylmorpholino)methyl)piperidin-1-yl)-3-fluorophenyl)-4-(N,N-dimethylsulfamimidoyl)benzene-sulfonamide], which AC50 is on record?
**A.** ≤ 2000 nM

**Q.** For CN(C)S(=O)(=O)c1ccc(S(=O)(=O)Nc2ccccc2N2CCOCC2)cc1 [Compound A-770, N1,N1-dimethyl-N4-[2-(morpholin-4-yl)phenyl]benzene-1,4-disulfonamide], which AC50 is on record?
**A.** ≥ 10000 nM

**Q.** For Cc1ccc(S(=O)(=O)Nc2cccc(F)c2N2CCC(CN3C[C@@H](C)O[C@@H](C)C3)CC2)cc1 [Compound A-771, N-[2-(4-{[(2R,6S)-2,6-dimethylmorpholin-4-yl]methyl}piperidin-1-yl)-3-fluorophenyl]-4-methylbenzene-1-sulfonamide], which AC50 is on record?
**A.** ≤ 2000 nM

**Q.** How did the AC50 turn out when C[C@@H]1CN(CC2CCN(c3ccccc3NS(=O)(=O)c3cnn(CC4CC4)c3)CC2)C[C@H](C)O1 [Compound A-772, 1-(cyclopropylmethyl)-N-[2-(4-[(2R,6S)-2,6-dimethylmorpholin-4-yl]methylpiperidin-1-yl)phenyl]-1H-pyrazole-4-sulfonamide] was run?
**A.** 8010 to 9990 nM

**Q.** For CN(C)S(=O)(=O)c1ccc(S(=O)(=O)Nc2cccc(F)c2N2CCC(CN3CCCC(F)(F)C3)CC2)cc1 [Compound A-773, N4-(2-{4-[(3,3-difluoropiperidin-1-yl)methyl]piperidin-1-yl}-3-fluorophenyl)-N1,N1-dimethylbenzene-1,4-disulfonamide], which AC50 is on record?
**A.** ≤ 2000 nM

**Q.** For CN(C)S(=O)(=O)c1ccc(S(=O)(=O)Nc2cccc(F)c2N2CCC(CN3CCC(F)(F)C3)CC2)cc1 [Compound A-774, N4-(2-{4-[(3,3-difluoropyrrolidin-1-yl)methyl]piperidin-1-yl}-3-fluorophenyl)-N1,N1-dimethylbenzene-1,4-disulfonamide], which AC50 is on record?
**A.** ≤ 2000 nM

**Q.** With CC(c1cccnc1N1CCC2(CC1)COC(C)(C)C2)S(=O)(=O)c1ccc(S(=O)(=O)N(C)C)cc1 (centres unmarked) [Compound A-775, 4-[1-(2-{3,3-dimethyl-2-oxa-8-azaspiro[4.5]decan-8-yl}pyridin-3-yl)ethanesulfonyl]-N,N-dimethylbenzene-1-sulfonamide] as the compound, how does the AC50 read?
**A.** 8010 to 9990 nM

**Q.** C[C@@H]1CN(CC2CCN(c3c(F)cccc3NS(=O)(=O)c3ccc(S(C)(=O)=O)cc3)CC2)C[C@H](C)O1 [Compound A-776, N-[2-(4-{[(2R,6S)-2,6-dimethylmorpholin-4-yl]methyl}piperidin-1-yl)-3-fluorophenyl]-4-methanesulfonylbenzene-1-sulfonamide] was tested. Which AC50 did it give?
**A.** ≤ 2000 nM

**Q.** COCC1(C(F)(F)F)CCN(c2ccccc2NS(=O)(=O)c2ccc(S(=O)(=O)N(C)C)cc2)CC1 [Compound A-777, N4-2-[4-(methoxymethyl)-4-(trifluoromethyl)piperidin-1-yl]phenyl-N1,N1-dimethylbenzene-1,4-disulfonamide] was tested. Which AC50 did it give?
**A.** ≤ 2000 nM

**Q.** For CN(C)S(=O)(=O)c1ccc(S(=O)(=O)Nc2cccc(F)c2N2CCC(CN3C4COCC3C4)CC2)cc1 [Compound A-778, N4-3-fluoro-2-[4-(3-oxa-6-azabicyclo[3.1.1]heptan-6-ylmethyl)piperidin-1-yl]phenyl-N1,N1-dimethylbenzene-1,4-disulfonamide], which AC50 is on record?
**A.** ≤ 2000 nM

**Q.** Which AC50 does the source give for CC(c1ccc(S(=O)(=O)Nc2ccccc2N2CCC(CN3C[C@@H](C)O[C@@H](C)C3)CC2)cc1)C1CC1 (stereo partly drawn) [Compound A-779, 4-(1-cyclopropylethyl)-N-[2-(4-{[(2R,6S)-2,6-dimethylmorpholin-4-yl]methyl}piperidin-1-yl)phenyl]benzene-1-sulfonamide] here?
**A.** ≤ 2000 nM

**Q.** How did the AC50 turn out when C[C@@H]1CN(CC2CCN(c3c(F)cccc3NS(=O)(=O)c3ccc4c(c3)OC(C)(C)C4)CC2)C[C@H](C)O1 [Compound A-780, N-[2-(4-{[(2R,6S)-2,6-dimethylmorpholin-4-yl]methyl}piperidin-1-yl)-3-fluorophenyl]-2,2-dimethyl-2,3-dihydro-1-benzofuran-6-sulfonamide] was run?
**A.** ≤ 2000 nM

**Q.** For C[C@@H]1CN(CC2(C)CCN(c3c(F)cccc3NS(=O)(=O)c3ccc(S(=O)(=O)N(C)C)cc3)CC2)C[C@H](C)O1 [Compound A-781, N4-[2-(4-{[(2R,6S)-2,6-dimethylmorpholin-4-yl]methyl}-4-methylpiperidin-1-yl)-3-fluorophenyl]-N1,N1-dimethylbenzene-1,4-disulfonamide], which AC50 is on record?
**A.** ≤ 2000 nM

**Q.** With C[C@@H]1CN(CC2CCN(c3c(F)cccc3[C@@H](C)S(=O)(=O)c3ccc(S(=O)(=O)N(C)C)cc3)CC2)C[C@H](C)O1 [Compound A-782, 4-[(1R)-1-[2-(4-{[(2R,6S)-2,6-dimethylmorpholin-4-yl]methyl}piperidin-1-yl)-3-fluorophenyl]ethanesulfonyl]-N,N-dimethylbenzene-1-sulfonamide] as the compound, how does the AC50 read?
**A.** ≤ 2000 nM

**Q.** For C[C@@H]1CN(CC2CCN(c3c(F)cccc3[C@H](C)S(=O)(=O)c3ccc(S(=O)(=O)N(C)C)cc3)CC2)C[C@H](C)O1 [Compound A-783, 4-[(1S)-1-[2-(4-{[(2R,6S)-2,6-dimethylmorpholin-4-yl]methyl}piperidin-1-yl)-3-fluorophenyl]ethanesulfonyl]-N,N-dimethylbenzene-1-sulfonamide], which AC50 is on record?
**A.** ≤ 2000 nM

**Q.** With CN(C)S(=O)(=O)c1ccc(S(=O)(=O)Nc2ccccc2N2CCC(C)(COC(F)(F)F)CC2)cc1 [Compound A-784, N1,N1-dimethyl-N4-(2-{4-methyl-4-[(trifluoromethoxy)methyl]piperidin-1-yl}phenyl)benzene-1,4-disulfonamide] as the compound, how does the AC50 read?
**A.** ≤ 2000 nM

**Q.** How did the AC50 turn out when CN(C)S(=O)(=O)c1ccc(S(=O)(=O)Nc2cccc(F)c2N2CCC(CN3C[C@@H]4C[C@H]3CO4)CC2)cc1 [Compound A-785, N4-[3-fluoro-2-(4-{[(1S,4S)-2-oxa-5-azabicyclo[2.2.1]heptan-5-yl]methyl}piperidin-1-yl)phenyl]-N1,N1-dimethylbenzene-1,4-disulfonamide] was run?
**A.** ≤ 2000 nM

**Q.** How did the AC50 turn out when COC1(CN2C[C@@H](C)O[C@@H](C)C2)CCN(c2c(F)cccc2NS(=O)(=O)c2ccc(S(=O)(=O)N(C)C)cc2)CC1 [Compound A-786, N4-[2-(4-[(2R,6S)-2,6-dimethylmorpholin-4-yl]methyl-4-methoxypiperidin-1-yl)-3-fluorophenyl]-N1,N1-dimethylbenzene-1,4-disulfonamide] was run?
**A.** ≤ 2000 nM

— patent publication US20230104936A1, “TRPML MODULATORS” (Casma Therapeutics, Inc., priority 2019, published 2023)
